Data published in patent US20230085307A1, “PYRIDAZINONE COMPOUND AND HERBICIDE” (NISSAN CHEMICAL CORPORATION, priority 2019, published 2023).

Legend:
lambsquarters [1] = assay: Test Example 4: herbicidal effect by soil treatment (Table 19, symbol O); type: in vivo, lambsquarters (Chenopodium album)
How it was run: (§1)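 Scoring uses the grading scale of an earlier test, three weeks post-application. Treatment consists of spraying a diluted emulsion formulation across the surface of sterilized diluvial soil in which seeds are buried near 1.5 cm deep; boxes are kept in a greenhouse between 25° C. and 30° C.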

late watergrass [2] = assay: Test Example 2: herbicidal activity, application during weed generation under submerged conditions (Table 17, symbol A); type: in vivo, late watergrass (Echinochloa oryzicola); settings: AAH 320 g/ha; application during weed generation, submerged conditions
How it was run: (§2)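 Mixed weed seedlings in alluvial soil under a 4 cm water layer, greenhouse-grown at 25–30° C. Compound given as a diluted emulsion into the floodwater at the 1–2 leaf stage; response graded after three weeks.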

Chinese sprangletop = assay: Test Example 3: herbicidal effect by foliage application, Wagner pot (Table 18, symbol D); type: in vivo, chinese sprangletop (Leptochloa chinensis)
How it was run: (§3)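 Plants were sown in alluvial soil held under 0.1–0.5 cm standing water and grown 14 days in a greenhouse at 25–30 °C. An emulsifiable formulation, water-diluted to the set dose, was then sprayed onto the foliage, and effects were scored three weeks later using previously defined criteria.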

windgrass [3] = assay: Test Example 4: herbicidal effect by soil treatment (Table 19, symbol L); type: in vivo, windgrass (Apera spica-venti)
How it was run: as §1

southern crabgrass [4] = assay: Test Example 5: herbicidal effect by foliage application, plastic box (Table 20, symbol F); type: in vivo, southern crabgrass (Digitaria ciliaris); settings: foliage application, evaluated three weeks after application
How it was run: (§4)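 Post-emergence foliar test in sterilized diluvial soil. Compound applied as water-diluted emulsion at a predetermined rate to 14-day-old plants; evaluation at three weeks.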

persian speedwell [5] = assay: Test Example 4: herbicidal effect by soil treatment (Table 19, symbol R); type: in vivo, Persian speedwell (Veronica persica)
How it was run: as §1

Japanese bulrush = assay: Test Example 2: herbicidal activity, application during weed generation under submerged conditions (Table 17, symbol B); type: in vivo, Japanese bulrush (Schoenoplectus juncoides); settings: AAH 320 g/ha; application during weed generation, submerged conditions
How it was run: as §2

persian speedwell [6] = assay: Test Example 5: herbicidal effect by foliage application, plastic box (Table 20, symbol R); type: in vivo, Persian speedwell (Veronica persica); settings: foliage application, evaluated three weeks after application
How it was run: as §4

Italian ryegrass [7] = assay: Test Example 4: herbicidal effect by soil treatment (Table 19, symbol K); type: in vivo, Italian ryegrass (Lolium multiflorum)
How it was run: as §1

southern crabgrass [8] = assay: Test Example 4: herbicidal effect by soil treatment (Table 19, symbol F); type: in vivo, southern crabgrass (Digitaria ciliaris)
How it was run: as §1

barnyard grass = assay: Test Example 3: herbicidal effect by foliage application, Wagner pot (Table 18, symbol H); type: in vivo, barnyard grass (Echinochloa crus-galli)
How it was run: as §3

blackgrass = assay: Test Example 4: herbicidal effect by soil treatment (Table 19, symbol J); type: in vivo, blackgrass (Alopecurus myosuroides)
How it was run: as §1

windgrass [9] = assay: Test Example 5: herbicidal effect by foliage application, plastic box (Table 20, symbol L); type: in vivo, windgrass (Apera spica-venti); settings: foliage application, evaluated three weeks after application
How it was run: as §4

lambsquarters [10] = assay: Test Example 5: herbicidal effect by foliage application, plastic box (Table 20, symbol O); type: in vivo, lambsquarters (Chenopodium album); settings: foliage application, evaluated three weeks after application
How it was run: as §4

velvetleaf = assay: Test Example 4: herbicidal effect by soil treatment (Table 19, symbol M); type: in vivo, velvetleaf (Abutilon theophrasti)
How it was run: as §1

Italian ryegrass [11] = assay: Test Example 5: herbicidal effect by foliage application, plastic box (Table 20, symbol K); type: in vivo, Italian ryegrass (Lolium multiflorum); settings: foliage application, evaluated three weeks after application
How it was run: as §4

late watergrass [12] = assay: Test Example 1: herbicidal activity, application before weed generation under submerged conditions (Table 16, symbol A); type: in vivo, late watergrass (Echinochloa oryzicola); settings: 320 g/ha applied herbicide
How it was run: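 Alluvial soil was flooded to 4 cm depth, weed seeds were sown mixed and 2.5-leaf rice seedlings were transplanted. On sowing day, the compound's emulsion, diluted in water to a set dose, was applied to the water surface. Plants grew at 25–30 °C and were scored 0–5 after three weeks.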

[13] = amount of applied herbicide 320 g/ha

Cc1nn(C)c(=O)c(-c2c(-c3ccc(Cl)cc3F)sc3ccc(F)cc23)c1O [2-348] was tested, and the “herbicidal effect on O: lambsquarters” value (lambsquarters [1]; [13]) was 5 (Herbicidal rate of 90% or more (almost completely withered)), the “herbicidal effect rating, A: late watergrass” value (late watergrass [2]) was 3 (Herbicidal rate of 40% or more and less than 70%) and the “herbicidal effect on D: Chinese sprangletop” value (Chinese sprangletop; [13]) was 5 (Herbicidal rate of 90% or more (almost completely withered)). The “herbicidal effect on L: windgrass” value (windgrass [3]; [13]) was 0 (Herbicidal rate of 5% or less (almost no effect)), the “F: southern crabgrass, herbicidal effect (criteria 0-5)” value (southern crabgrass [4]; AAH 320 g/ha) was 5 (Herbicidal rate of 90% or more (almost completely withered)) and the “herbicidal effect on R: persian speedwell” value (persian speedwell [5]; [13]) was 4 (Herbicidal rate of 70% or more and less than 90%). The “herbicidal effect rating, B: Japanese bulrush” value (Japanese bulrush) was 2 (Herbicidal rate of 20% or more and less than 40%), the “R: persian speedwell, herbicidal effect (criteria 0-5)” value (persian speedwell [6]; AAH 320 g/ha) was 5 (Herbicidal rate of 90% or more (almost completely withered)) and the “herbicidal effect on K: Italian ryegrass” value (Italian ryegrass [7]; [13]) was 2 (Herbicidal rate of 20% or more and less than 40%). The “herbicidal effect on F: southern crabgrass” value (southern crabgrass [8]; [13]) was 1 (Herbicidal rate of 5% or more and less than 20%), the “herbicidal effect on H: barnyard grass” value (barnyard grass; [13]) was 5 (Herbicidal rate of 90% or more (almost completely withered)) and the “herbicidal effect on J: blackgrass” value (blackgrass; [13]) was 0 (Herbicidal rate of 5% or less (almost no effect)). For the same molecule, the “L: windgrass, herbicidal effect (criteria 0-5)” value (windgrass [9]; AAH 320 g/ha) was 5 (Herbicidal rate of 90% or more (almost completely withered)), the “O: lambsquarters, herbicidal effect (criteria 0-5)” value (lambsquarters [10]; AAH 320 g/ha) was 5 (Herbicidal rate of 90% or more (almost completely withered)) and the “herbicidal effect on M: velvetleaf” value (velvetleaf; [13]) was 1 (Herbicidal rate of 5% or more and less than 20%). For the same molecule, the “K: Italian ryegrass, herbicidal effect (criteria 0-5)” value (Italian ryegrass [11]; AAH 320 g/ha) was 4 (Herbicidal rate of 70% or more and less than 90%) and the “Herbicidal effect on A: late watergrass (grade 0-5)” value (late watergrass [12]) was 2 (Herbicidal rate of 20% or more and less than 40%).

With CCCC(=O)Oc1c(C)nn(C)c(=O)c1-c1c(-c2ccc(OC)c(OC)c2)sc2ccc(F)cc12 [2-089] the “herbicidal effect rating, O: lambsquarters” value (lambsquarters [1]; 320 g/ha) was 5 (Herbicidal rate of 90% or more (almost completely withered)), the “herbicidal effect rating, A: late watergrass” value (late watergrass [2]) was 4 (Herbicidal rate of 70% or more and less than 90%) and the “herbicidal effect on D (Chinese sprangletop), rating 0-5” value (Chinese sprangletop; 320 g/ha) was 3 (Herbicidal rate of 40% or more and less than 70%). For the same molecule, the “herbicidal effect rating, L: windgrass” value (windgrass [3]; 320 g/ha) was 0 (Herbicidal rate of 5% or less (almost no effect)), the “herbicidal effect on F: southern crabgrass” value (southern crabgrass [4]; 320 g/ha) was 3 (Herbicidal rate of 40% or more and less than 70%) and the “herbicidal effect rating, R: persian speedwell” value (persian speedwell [5]; 320 g/ha) was 5 (Herbicidal rate of 90% or more (almost completely withered)). For the same molecule, the “herbicidal effect rating, B: Japanese bulrush” value (Japanese bulrush) was 3 (Herbicidal rate of 40% or more and less than 70%), the “herbicidal effect on R: persian speedwell” value (persian speedwell [6]; 320 g/ha) was 5 (Herbicidal rate of 90% or more (almost completely withered)) and the “herbicidal effect rating, K: Italian ryegrass” value (Italian ryegrass [7]; 320 g/ha) was 4 (Herbicidal rate of 70% or more and less than 90%). The “herbicidal effect rating, F: southern crabgrass” value (southern crabgrass [8]; 320 g/ha) was 4 (Herbicidal rate of 70% or more and less than 90%), the “herbicidal effect on H (barnyard grass), rating 0-5” value (barnyard grass; 320 g/ha) was 4 (Herbicidal rate of 70% or more and less than 90%) and the “herbicidal effect rating, J: blackgrass” value (blackgrass; 320 g/ha) was 0 (Herbicidal rate of 5% or less (almost no effect)). The “herbicidal effect on L: windgrass” value (windgrass [9]; 320 g/ha) was 0 (Herbicidal rate of 5% or less (almost no effect)), the “herbicidal effect on O: lambsquarters” value (lambsquarters [10]; 320 g/ha) was 4 (Herbicidal rate of 70% or more and less than 90%) and the “herbicidal effect rating, M: velvetleaf” value (velvetleaf; 320 g/ha) was 4 (Herbicidal rate of 70% or more and less than 90%). The “herbicidal effect on K: Italian ryegrass” value (Italian ryegrass [11]; 320 g/ha) was 4 (Herbicidal rate of 70% or more and less than 90%) and the “Herbicidal effect on A: late watergrass (grade 0-5)” value (late watergrass [12]) was 5 (Herbicidal rate of 90% or more (almost completely withered)).
